Target: T1, RANTES/MIP-1α chemokine receptor (CCR1) in THP-1 cell membranes (Homo sapiens, UniProt P32246)
T1 construct: Membranes were prepared from THP-1 cells (ATCC #TIB202); host or cells: THP-1 cells (membrane preparation)
T1 sequence (P32246 1-355): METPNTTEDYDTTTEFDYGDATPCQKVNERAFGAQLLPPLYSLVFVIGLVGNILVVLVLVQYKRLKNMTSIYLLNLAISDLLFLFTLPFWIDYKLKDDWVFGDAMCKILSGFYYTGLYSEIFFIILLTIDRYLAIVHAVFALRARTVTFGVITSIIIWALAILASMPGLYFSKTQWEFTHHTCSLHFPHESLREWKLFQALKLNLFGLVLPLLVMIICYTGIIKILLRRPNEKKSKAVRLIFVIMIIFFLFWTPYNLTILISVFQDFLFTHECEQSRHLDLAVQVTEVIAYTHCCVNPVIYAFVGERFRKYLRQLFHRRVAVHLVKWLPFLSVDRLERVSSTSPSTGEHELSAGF
Assay: Receptor binding assay: 125I-RANTES or 125I-MIP-1α binding to THP-1 cell membranes
Conditions: inhibitor concentration required for 50% inhibition of specific binding; 125I-RANTES or 125I-MIP-1α as ligand, THP-1 cell membranes; read-out: IC50
Experimental: Membranes were prepared from THP-1 cells (ATCC #TIB202). Cells were harvested by centrifugation, washed twice with PBS (phosphate-buffered saline), and the cell pellets were frozen at −70 to −85° C. The frozen pellet was thawed in ice-cold lysis buffer consisting of 5 mM HEPES (N-2-hydroxyethylpiperazine-N′-2-ethane-sulfonic acid) pH 7.5, 2 mM EDTA (ethylenediaminetetraacetic acid), 5 μg/ml each aprotinin, leupeptin, and chymostatin (protease inhibitors), and 100 μg/ml PMSF (phenyl methane sulfonyl fluoride—also a protease inhibitor), at a concentration of 1 to 5×10^7 cells/ml. This procedure results in cell lysis. The suspension was mixed well to resuspend all of the frozen cell pellet. Nuclei and cell debris were removed by centrifugation of 400×g for 10 minutes at 4° C. The supernatant was transferred to a fresh tube and the membrane fragments were collected by centrifugation at 25,000×g for 30 minutes at 4° C. The supernatant was aspirated and the pellet was resuspended in freezing buffer consisting of 10 mM HEPES pH 7.5, 300 mM sucrose, 1 μg/ml each aprotinin, leupeptin, and chymostatin, and 10 μg/ml PMSF (approximately 0.1 ml per each 10^8 cells). All clumps were resolved using a minihomogenizer, and the total protein concentration was determined using a protein assay kit (Bio-Rad, Hercules, Calif., cat #500-0002). The membrane solution was then aliquoted and frozen at −70 to −85° C. until needed.
Binding Assays utilized the membranes described above. […] The binding reactions were performed in 60 to 100 μl of a binding buffer consisting of 10 mM HEPES pH 7.2, 1 mM CaCl2, 5 mM MgCl2, and 0.5% BSA (bovine serum albumin), for 60 min at room temperature. The binding reactions were terminated by harvesting the membranes by rapid filtration through glass fiber filters (GF/B or GF/C, Packard) which were presoaked in 0.3% polyethyleneimine. The filters were rinsed with approximately 600 μl of binding buffer containing 0.5 M NaCl, dried, and the amount of bound radioactivity was determined by scintillation counting in a Topcount beta-plate counter.
Specific binding is defined as the total binding minus the non-specific binding; non-specific binding is the amount of cpm still detected in the presence of excess unlabeled Rantes or MIP-1α.

Substance: 1-(2-Chlorophenylsulfonyl)-4-[3-(5,11-Dihydro-7-methoxy[1]benzoxepino[2,3-b]pyridin-5-ylidene)propyl]piperazine [Example 190]
- IC50: > 10 µM

Substance: 1-(3-Chlorophenylsulfonyl)-4-[3-(5,11-Dihydro-7-methoxy[1]benzoxepino[2,3-b]pyridin-5-ylidene)propyl]piperazine [Example 191]
- IC50: > 10 µM

Substance: 1-(4-Chlorophenyl)-4-[3-(5,11-dihydro-7-methoxy[1]benzoxepino[2,3-b]pyridin-5-ylidene)propyl]piperazine [Example 71]
- IC50: < 1 µM

Substance: 1-(4-Chlorophenylsulfonyl)-4-[3-(5,11-Dihydro-7-methoxy[1]benzoxepino[2,3-b]pyridin-5-ylidene)propyl]piperazine [Example 192]
- IC50: > 10 µM

Substance: 1-Cyclohexyl-4-[3-(5,11-dihydro-7-methoxy[1]benzoxepino[2,3-b]pyridin-5-ylidene)propyl]piperazine [Example 73]
- IC50: < 10 µM

Substance: 1-[3-(5,11-Dihydro-7-methoxy[1]benzoxepino[2,3-b]pyridin-5-ylidene)propyl]-4-(2-furoyl)piperazine [Example 74]
- IC50: < 1000 µM

Substance: 1-[3-(5,11-Dihydro-7-methoxy[1]benzoxepino[2,3-b]pyridin-5-ylidene)propyl]-4-(2-hydroxyphenyl)piperidine [Example 184]
- IC50: < 10 µM

Substance: 1-[3-(5,11-Dihydro-7-methoxy[1]benzoxepino[2,3-b]pyridin-5-ylidene)propyl]-4-(2-pyridyl)piperidin-4-ol [Example 147]
- IC50: < 10 µM

Substance: 1-[3-(5,11-Dihydro-7-methoxy[1]benzoxepino[2,3-b]pyridin-5-ylidene)propyl]-4-(2-pyrimidyl)piperazine [Example 72]
- IC50: < 10 µM

Substance: 1-[3-(5,11-Dihydro-7-methoxy[1]benzoxepino[2,3-b]pyridin-5-ylidene)propyl]-4-(3-pyridyl)piperidin-4-ol [Example 148]
- IC50: < 10 µM

Substance: 1-[3-(5,11-Dihydro-7-methoxy[1]benzoxepino[2,3-b]pyridin-5-ylidene)propyl]-4-(4-fluoro-3-methylphenyl)piperidin-4-ol [Example 143]
- IC50: < 1 µM

Substance: 1-[3-(5,11-Dihydro-7-methoxy[1]benzoxepino[2,3-b]pyridin-5-ylidene)propyl]-4-(4-fluorophenyl)piperidin-4-ol [Example 77]
- IC50: < 1 µM

Substance: 1-[3-(5,11-Dihydro-7-methoxy[1]benzoxepino[2,3-b]pyridin-5-ylidene)propyl]-4-(4-hydroxyphenyl)piperidin-4-ol [Example 142]
- IC50: < 10 µM

Substance: 1-[3-(5,11-Dihydro-7-methoxy[1]benzoxepino[2,3-b]pyridin-5-ylidene)propyl]-4-(4-hydroxyphenyl)piperidine [Example 183]
- IC50: < 1 µM

Substance: 1-[3-(5,11-Dihydro-7-methoxy[1]benzoxepino[2,3-b]pyridin-5-ylidene)propyl]-4-(4-methoxyphenyl)piperidin-4-ol [Example 140]
- IC50: > 10 µM

Substance: 1-[3-(5,11-Dihydro-7-methoxy[1]benzoxepino[2,3-b]pyridin-5-ylidene)propyl]-4-(4-pyridyl)piperidin-4-ol [Example 149]
- IC50: < 1000 µM

Substance: 1-[3-(5,11-Dihydro-7-methoxy[1]benzoxepino[2,3-b]pyridin-5-ylidene)propyl]-4-(4-trifluoromethylphenyl)piperidin-4-ol [Example 150]
- IC50: < 10 µM

Substance: 1-[3-(5,11-Dihydro-7-methoxy[1]benzoxepino[2,3-b]pyridin-5-ylidene)propyl]-4-phenylpiperidine [Example 64]
- IC50: < 1 µM

Substance: 1-[3-(5,11-Dihydro-7-methoxy[1]benzoxepino[2,3-b]pyridin-5-ylidene)propyl]-4-piperidinopiperidine [Example 66]
- IC50: < 1000 µM

Substance: 1-[3-(5,11-Dihydro-7-methoxy[1]benzoxepino[2,3-b]pyridin-5-ylidene)propyl]piperidin-4-ol [Example 61]
- IC50: < 10 µM

Substance: 1-[3-(7-(1-Carboxy-1-methylethyl)oxy-5,11-dihydro [1]benzoxepino[2,3-b]pyridin-5-ylidene)propyl]-4-(4-chlorophenyl)piperidin-4-ol [Example 139]
- IC50: < 1 µM

Substance: 1-[3-(7-(1-Carboxy-1-methylethyl)oxy-5,11-dihydro[1]benzoxepino[2,3-b]pyridin-5-ylidene)propyl]-4-(4-chlorophenyl)piperidine [Example 159]
- IC50: < 1 µM

Substance: 1-[3-(7-(1-Carboxyethyl)oxy-5,11-dihydro[1]benzoxepino[2,3-b]pyridin-5-ylidene)propyl]-4-(4-chlorophenyl)piperidin-4-ol [Example 178]
- IC50: < 1 µM

Substance: 1-[3-(7-(2-Carbamoyl)ethyl-5,11-dihydro[1]benzoxepino[2,3-b]pyridin-5-ylidene)propyl]-4-(4-chlorophenyl)-piperidin-4-ol [Example 218]
- IC50: < 1 µM

Substance: 1-[3-(7-(2-Carboxy)ethenyl-5,11-dihydro[1]benzoxepino[2,3-b]pyridin-5-ylidene)propyl]-4-(4-chlorophenyl)piperidin-4-ol [Example 172]
- IC50: < 1 µM

Substance: 1-[3-(7-(2-Carboxy)ethyl-5,11-dihydro[1]benzoxepino[2,3-b]pyridin-5-ylidene)propyl]-4-(4-chlorophenyl)-piperidin-4-ol [Example 123]
- IC50: < 1 µM

Substance: 1-[3-(7-Bromo-5,11-dihydro[1]benzoxepino[2,3-b]pyridin-5-ylidene)propyl]-4-(4-chlorophenyl)piperidin-4-ol [Example 162]
- IC50: < 1 µM

Substance: 1-[3-(7-Carbamoyl-5,11-dihydro[1]benzoxepino[2,3-b]pyridin-5-ylidene)propyl]-4-(4-chlorophenyl)piperidin-4-ol [Example 269]
- IC50: < 1 µM

Substance: 1-[3-(7-Carbamoylmethyl-5,11-dihydro[1]benzoxepino[2,3-b]pyridin-5-ylidene)propyl]-4-(4-chlorophenyl)-piperidin-4-ol [Example 281]
- IC50: < 1 µM

Substance: 1-[3-(7-Carbamoylmethyloxy-5,11-dihydro[1]benzoxepino[2,3-b]pyridin-5-ylidene)propyl]-4-(4-chlorophenyl)piperidin-4-ol [Example 181]
- IC50: < 1 µM

Substance: 1-[3-(7-Carboxy-5,11-dihydro[1]benzoxepino[2,3-b]pyridin-5-ylidene)propyl]-4-(4-chlorophenyl)piperidin-4-ol [Example 118]
- IC50: < 1 µM

Substance: 1-[3-(7-Carboxymethyloxy-5,11-dihydro[1]benzoxepino[2,3-b]pyridin-5-ylidene)propyl]-4-(4-chlorophenyl)piperidin-4-ol [Example 133]
- IC50: < 1 µM

Substance: 1-[3-(7-Chloro-5,11-dihydro[1]benzoxepino[2,3-b]pyridin-5-ylidene)propyl]-4-(4-chlorophenyl)piperidin-4-ol [Example 117]
- IC50: < 1 µM

Substance: 1-[3-(8-Bromo-5,11-dihydro[1]benzoxepino[2,3-b]pyridin-5-ylidene)propyl]-4-(4-chlorophenyl)piperidin-4-ol [Example 54]
- IC50: < 1 µM

Substance: 1-[3-(8-Bromo-5,11-dihydro[1]benzoxepino[2,3-b]pyridin-5-ylidene)propyl]-4-(4-chlorophenyl)piperidine [Example 160]
- IC50: < 1 µM

Substance: 1-[3-(8-Carboxy-5,11-dihydro[1]benzoxepino[2,3-b]pyridin-5-ylidene)propyl]-4-(4-chlorophenyl)piperidine [Example 161]
- IC50: < 10 µM

Substance: 1-{3-[7-(1-Hydroxy-1-methyl-ethyl)-11H-10-oxa-1-aza-dibenzo[a,d]cyclohepten-5-ylidene]-propyl}-4-phenyl-piperidin-4-ol [Example 488]
- IC50: < 1 µM

Substance: 1′-[3-(5,11-Dihydro-7-methoxy[1]benzoxepino[2,3-b]pyridin-5-ylidene)propyl]spiro[isobenzofuran-1(3H), 4′-piperidine] [Example 90]
- IC50: < 1 µM
